Data on eight compounds can be found in patent US20240190847A1, “INDOLINE DERIVATIVES AS DDR1 AND DDR2 INHIBITORS” (CHIESI FARMACEUTICI S.P.A., priority 2021, published 2024).

Some results are limits rather than exact numbers.

Assay [1] deals with DDR1. Put plainly: DDR1 LanthaScreen Europium Kinase Binding assay. The note with it: 5 nM DDR1, 1 hour at room temperature, Ki from IC50 by Cheng-Prusoff, read-out: Ki DDR1. As to the method:
(§1) DDR1 and DDR2 binding assays were performed using Life Technologies LanthaScreen™ Europium Kinase Binding assay. The compounds were incubated with 5 nM DDR1 (Carna Biosciences) or 5 nM DDR2 (Life Technologies) for 1 hour at room temperature in white 384-well OptiPlate (PerkinElmer), containing 20 nM or 10 nM Kinase Tracer 178 respectively and 2 nM Europium labelled anti-GST antibody (Life Technologies) in assay buffer (50 mM HEPES pH 7.5, 10 mM MgCl2, 1 mM EGTA and 0.01% BRIJ35). The ratio of fluorescence emission 665 nm/615 nm after excitation at 340 nm was obtained using the Tecan Spark 20M plate reader. IC50 values were determined in GraphPad Prism 8.0 software, using 4 parameter model: log(inhibitor) vs. response. IC50 values were converted in Ki using the Cheng-Prusoff equation (Ki=IC50/(1+[Tracer]/Kd).

The target in assay [2] is DDR2. In words: DDR2 LanthaScreen Europium Kinase Binding assay. The note with it: 5 nM DDR2, 1 hour at room temperature, Ki from IC50 by Cheng-Prusoff, read-out: Ki DDR2. As to the method: as §1
The subject of assay [3] is DDR1 receptor. Put plainly: DDR1 cell based assay (PathHunter U2OS DDR1). The note with it: U2OS-DDR1 cells, bovine Type II Collagen 20 μg/ml stimulation. As to the method: The inhibition of DDR1 receptor activation by compounds was evaluated by PathHunter® U2OS DDR1 assay (Eurofins DiscoverX), according to the manufacturer's instructions. Briefly, U2O5-DDR1 cells were seeded in white 384-well plates at a density of 5000 cells/well and incubated for 2 hours at 37° C. and 5% CO2. Cells were then treated with compounds at different concentrations and incubated for 30 minutes, before stimulation with bovine Type II Collagen 20 μg/ml and incubation overnight at 37° C. and 5% CO2. PathHunter Detection Reagents were prepared according to the protocol provided by DiscoverX and 20 μl/well of this mix were added to each well. After incubating the plates for 1 hour at room temperature in the dark, luminescence signal was acquired with a plate reader. Raw data were normalized to vehicle control (0% for normalization) and positive control (100% for normalization; cells treated with 20 μg/ml collagen II) and IC50 parameters were calculated in GraphPad Prism 8.0 software, using sigmoidal dose-response curve fitting with variable slope.

For `CN1CCN(Cc2ccc(NC(=O)c3ccc4c(c3)N(Cc3ccc(N)nc3)CC4)cc2C(F)(F)F)CC1` [Example 9, 1-((6-aminopyridin-3-yl)methyl)-N-(4-((4-methylpiperazin-1-yl)methyl)-3-(trifluoromethyl)phenyl)indoline-6-carboxamide], the results for the Ki in assay [1] and in assay [2] were less than 25 nM and 25 to 50 nM, respectively. The compound further gave an IC50 in assay [3] of less than 25 nM.
As to `CNC(=O)c1cc(CN2CCc3ccc(NC(=O)c4cc(-n5cnc(C)c5)cc(C(F)(F)F)c4)cc32)ccn1` [Example 6, N-methyl-4-((6-(3-(4-methyl-1H-imidazol-1-yl)-5-(trifluoromethyl)benzamido)indolin-1-yl)methyl)picolinamide], the Ki in assay [1] and in assay [2] was less than 25 nM each time. For the same compound, in assay [3], the half-inhibitory concentration (IC50) was 25 to 50 nM.
In the case of `CN1CCN(Cc2cc(NC(=O)c3ccc4c(c3)N(Cc3cncnc3)CC4)cc(C(F)(F)F)c2)CC1` [Example 3, N-(3-((4-methylpiperazin-1-yl)methyl)-5-(trifluoromethyl)phenyl)-1-(pyrimidin-5-ylmethyl)indoline-6-carboxamide], the inhibition constant Ki in assay [1] and in assay [2] was less than 25 nM each time. Besides, the half-maximal inhibitory concentration (IC50) in assay [3] lay within 50 to 80 nM.
As for `CN1CCN(c2cncc(CN3CCc4ccc(C(=O)Nc5cccc(C(F)(F)F)c5)cc43)c2)CC1=O` [Example 7, 1-((5-(4-methyl-3-oxopiperazin-1-yl)pyridin-3-yl)methyl)-N-(3-(trifluoromethyl)phenyl)indoline-6-carboxamide], the inhibitory constant (Ki) in assay [1] and in assay [2] was less than 25 nM throughout. Also, in assay [3], the 50% inhibitory concentration (IC50) is less than 25 nM.
In the case of `CN1CCN(Cc2ccc(NC(=O)c3ccc4c(c3)N(Cc3cncc(C(N)=O)c3)CC4)cc2C(F)(F)F)CC1` [Example 17, 1-((5-carbamoylpyridin-3-yl)methyl)-N-(4-((4-methylpiperazin-1-yl)methyl)-3-(trifluoromethyl)phenyl)indoline-6-carboxamide], the Ki in assay [1] and in assay [2] was less than 25 nM in each case. Besides, the IC50 in assay [3] is 25 to 50 nM.
As to `CNC(=O)c1cc(CN2CCc3ccc(C(=O)Nc4cc(-n5cnc(C)c5)cc(C(F)(F)F)c4)cc32)ccn1` [Example 2, N-(3-(4-methyl-1H-imidazol-1-yl)-5-(trifluoromethyl)phenyl)-1-((2-(methylcarbamoyl)pyridin-4-yl)methyl)indoline-6-carboxamide], the inhibition constant Ki in assay [1] and in assay [2] was less than 25 nM each time. Also, the IC50 in assay [3] was in the range of 25 to 50 nM.
Consider `CN1CCN(Cc2ccc(NC(=O)c3ccc4c(c3)N(Cc3cnc(N)nc3)CC4)cc2C(F)(F)F)CC1` [Example 8, 1-((2-aminopyrimidin-5-yl)methyl)-N-(4-((4-methylpiperazin-1-yl)methyl)-3-(trifluoromethyl)phenyl)indoline-6-carboxamide], for which the Ki in assay [1] was less than 25 nM; in assay [2], 25 to 50 nM. In assay [3], the 50% inhibitory concentration (IC50) was less than 25 nM.
On to `COCCn1cc(Nc2ncc(CN3CCc4ccc(C(=O)Nc5cc(CN6CCN(C)CC6)cc(C(F)(F)F)c5)cc43)cn2)cn1` [Example 19, 1-((2-((1-(2-methoxyethyl)-1H-pyrazol-4-yl)amino)pyrimidin-5-yl)methyl)-N-(3-((4-methylpiperazin-1-yl)methyl)-5-(trifluoromethyl)phenyl)indoline-6-carboxamide], for which the Ki in assay [1] and in assay [2] was less than 25 nM throughout. Besides, the IC50 in assay [3] is less than 25 nM.
